Experimental data reported in patent publication US20250197398A1, “Varenicline Related Compounds and Methods for Treating Diseases and Conditions Including Tobacco Use Disorder” (SpaceRX LLC, priority 2022, published 2025).

What was measured:
Type in all cases: in vivo
[1] = tested on: nicotine-induced dopamine signaling in the striatum; assay: Nicotine-evoked striatal dopamine release after compound pretreatment (GRAB-DA sensor, fiber photometry); details: awake mice pretreated with compound; IP nicotine 2 hours later; mean dopamine response for 30 minutes following nicotine; varenicline 1.5 and 4.5 mpk; FIG. 2A-2C
Text: (§1) FIG. 1A-FIG. 1B are a schematic and a response curve illustrating the monitoring of striatal dopamine in the awake behaving animal in response to varenicline. […] Scale bar, 200 μm.
FIG. 2A-FIG. 2C are bar graphs and a response curve illustrating the striatal dopamine responses to nicotine. […] FIGS. 2B-2C show exemplary traces and quantification of striatal dopamine responses preceding and following an IP administration of nicotine. Mice were pretreated either with Varenicline (light grey) or Varenicline-Encarbil (dark grey).
(§2) The ability of varenicline to decrease nicotine use comes from the ability to block nicotine-induced dopamine signaling in the striatum. Real-time sensing of dopamine levels in awake and behaving mice was measured using a fluorescent dopamine sensor (GRAB-DA) and fluorometric measurements of that sensor (Fiber Photometry).

[2] = tested on: striatal dopamine levels; assay: Striatal dopamine response to oral compound administration (GRAB-DA sensor, fiber photometry); details: awake mice; mean for 30 minutes following compound administration; varenicline 1.5 and 4.5 mpk; FIG. 3A-3B
Text: as §1
FIG. 3A-FIG. 3B are a bar graph and a response curve illustrating the striatal dopamine responses to oral compound administration.
as §2

[3] = tested on: anxiety-like behavior in mice; assay: Open field assay after oral compound administration; details: varenicline 1.5 and 4.5 mpk, FIG. 5
Text: FIG. 5 is a bar graph illustrating open field responses to oral administration of compounds.
Varenicline also influenced the mobility and anxiety-like behavior in mice.

SMILES | efficacy at reducing the nicotine-evoked release of dopamine [1] | striatal dopamine response following oral administration of compound [2] | anxiety-like behavior: time spent in center of open field [3]
CC(OC(=O)C(C)C)OC(=O)N1CC2CC(C1)c1cc3nccnc3cc12 (stereo not drawn) [Varenicline-Encarbil] | better efficacy when compared directly to varenicline | mimic the effects of varenicline | –
O=C(N[C@@H](CO)C(=O)O)c1ccc[n+](COC(=O)N2CC3CC(C2)c2cc4nccnc4cc23)c1 [Servarenicline Chloride] | better efficacy when compared directly to varenicline | do not lead to dopamine release | not observed
N[C@@H](Cc1ccc(OC(=O)N2CC3CC(C2)c2cc4nccnc4cc23)cc1)C(=O)O [Varenicline-CBT] | – | do not lead to dopamine release | not observed
c1cnc2cc3c(cc2n1)[C@@H]1CNC[C@H]3C1 [varenicline] | regardless the dose of varenicline, the response to nicotine 2 hours later is the same | increased striatal dopamine levels after administration | dramatically reduced time in the middle
NCC(=O)N1CC2CC(C1)c1cc3nccnc3cc12 [Varenicline Glycinamide] | – | do not lead to dopamine release | not observed
